{"source": "patent EP0227593A1", "about": "“Use of chelating agents” (THE HOSPITAL FOR SICK CHILDREN, priority 1985, dated 1987)", "key": {"[1]": {"system": "Lewis lung carcinoma", "experiment": "Tumour growth and metastases of Lewis lung carcinoma in mice", "format": "in vivo", "conditions": "11 injections", "experimental": "Female C57B16 mice (10 mice/group, 18-22 g body weight) were i.m. injected into the left hind leg with 0.1 ml of a tumour cell suspension of Lewis lung carcinoma (day 0).\nNine groups of animals were investigated. The test compounds were s.c. administered as follows: physiological saline: once daily for eleven days starting from day 0 up to day 10. DFO: 0.5 ml in distilled water in a dose of 10 and 30 mg/kg once daily for eleven days, on day 0 up to day 10 after tumour inocculation. 10-EDAM: 0.5 ml in distilled water in a dose of 3 and 6 mg/kg, once daily on days 1, 3, 5, 7 and 9 after tumour inocculation.\nBoth hind legs were removed from the body, weighed, and the difference between the tumour bearing and the tumour free leg was taken as the tumour weight of one idividual mouse.\nLungs were filled up with Pelikan-ink via the trachea, fixed in Fekete-solution and metastases (white spot on black back-ground) on the lung surface were counted microscopically."}, "[2]": {"system": "blasts", "experiment": "Marrow aspirate and cytochemistry at conclusion of the 20-day treatment protocol", "format": "in vivo, human", "source_text": "In contrast to the marrow aspirate prior to DFO therapy, 60 % of the blasts were positive for non-specific esterase and staining could be inhibited by fluoride."}, "[3]": {"system": "L-1210 tumour cells", "experiment": "L-1210 tumour growth in mice", "format": "in vivo", "conditions": "day 8", "experimental": "One hour prior to kill on day 8 the mice received one ip injection of 0.002 mCi of 3H-thymidine per g body weight. Cells were harvested from the peritoneal cavity, the volume of ascites measured and the cell counts determined in a coulter counter, after lysis of red cells with zap-oglobin, for calculation of total tumour cell numbers. Also, of each sample cell smears were done, Feulgen stained and autoradiographed, whereby the number and percentage of labelled cells was determined and used as a measure for proliferating cells."}, "[4]": {"system": "bone marrow cells", "experiment": "Surface marker analysis by immunofluorescence on bone marrow cells at conclusion of the 20-day treatment", "format": "in vivo, human", "conditions": "conclusion of 20-day treatment course", "experimental": "(§1) Cell Culture Procedure: 2 x 10⁵ T-depleted cells were incubated with 40 % RPMI-methylcellulose, 20 % PHA-LCM, 10 % FCS, irradiated feeder cells (10⁵/dish), 16.6 % RPMI in 35 mm Petri dishes. The culture dishes were placed into a specialized modular incubator chamber (Billups-Rosenberg, Del Mar, CA) in a humidified atmosphere of 5 % O₂, 5 % CO₂ and balanced nitrogen for 3-6 days. After 2 days of incubation, the culture dishes were carefully examined. Colonies were counted at day 4. A cluster of more than 20 cells was defined as a colony. Individual colonies were plucked from the culture plates and smeared on microscope slides for further evaluation, using Wright stain and non-specific esterase staining. For control, 2 x 10⁵ irradiated feeder cells were cultured in the same assay system in each experiment to exclude their potential for colony formation Immunocytochemical Method: The cell surface antigens of air dried smears were detected using monoclonal antibodies and intestinal alkaline phosphatase, as previously described. This assay was performed to detect surface antigens on patients' PB and BM smears and colonies plucked from cultures. The slides were counter- stained in hematoxylin for light microscopy and the presence of surface antigen was indicated as bright red granular cellular inclusions. Morphologic details were well preserved, and a very high degree of correlation between morphology and surface antigen expression was observed. The intensity of staining was defined as strong (+++), moderate (++) and weak (+). Immunofluorescence Method: The cell surface phenotype was determined by indirect cell-surface fluorescence: A fluorescein-conjugated goat anti-mouse IgG (FAb')₂ was used as second antibody. The labelling was performed at room temperature in the presence of 0.2 % sodium azide. The percentage of cells with surface fluorescence was determined by counting cells stained in three replicate wells using an inverted phase-fluorescent microscope. Monoclonal Antibodies: The following monoclonal antibodies were used in these studies: anti-OKIa (Ortho Diagnostic Systems Inc. Raritan, NJ) to detect HLA-D framework antigen, anti-MY-7, anti-Mol and anti-MY-4 (coulter Immunology) to identify myelomonocytic markers, anti-Ig. anti-BA1, anti-BA2, anti-B1, and anti-B4 (Becton-Dickinson) to recognize cells of the B-cell lineage, anti-J5 (Coulter Immunology) to recognize cells bearing common ALL (CALLA) antigen and anti-Leu-1 and anti-Leu-4 (Coulter Immunology) to recognize cells of the T-cell lineage.\nImmunologic surface markers were determined by immunofluorescence before and at the conclusion of the 20-day treatment course on bone marrow cells."}, "[5]": {"system": "PB leukemia cell colonies", "experiment": "Surface marker analysis of leukemia cell colonies grown with deferoxamine (immunocytochemical assay)", "format": "cell-based, human", "parameters": "key to Ia intensity of staining / B4 intensity of staining / OKM1 intensity of staining / MY-4 intensity of staining: strong (+++); moderate (++); weak (+)", "conditions": "colonies from cultures containing 2.5 µM deferoxamine", "experimental": "as §1\nDFO and Blast Cell Differentiation: Individual blast colonies from the culture plates containing DFO 2.5 µM were characterized (Table 2). Compared to colonies grown without exposure to DFO, a marked change in cell surface antigen expression was observed.\nPB leukemia cell colonies were plucked at random from cultures containing 2.5 µM deferoxamine compared to cultures without deferoxamine using the immunocytochemical assay."}, "[6]": {"system": "peripheral blood blast cell numbers", "experiment": "20-day experimental treatment protocol in a leukemia patient: WBC and blast counts", "format": "in vivo, human", "experimental": "With informed consent and following an approval by the Human Experimentation Committee of our institution, an experimental protocol was initiated: DFO, dissolved in sterile water was given by continuous infusion of 10 mg/kg/hour; cytosine arabinoside (Ara-C) dissolved in saline was given by i.v. push, 5 mg/kg/dose. When used consecutively, DFO was stopped 8-12 hours prior to cytosine arabinoside.\nDeferoxamine (DFO) was given by continuous infusion 10 mg/kg/hr Cytosine-arabinoside (Ara-C) was given by i.v. push, 5 mg/kg/dose."}, "[7]": {"conditions": "DFO 400 mg/kg/d s.c. minipump from day 2, Ara-C 200 mg/kg once ip on day 6"}, "[8]": {"conditions": "Day 1, DFO continuous infusion 10 mg/kg/hr, 24 h"}, "[9]": {"conditions": "Day 3, after first 48 hours of DFO, Ara-C starts Day 3"}}}
{"smiles": "CC(=O)N(O)CCCCCNC(=O)CCC(=O)N(O)CCCCCNC(=O)CCC(=O)N(O)CCCCCN", "note": "[DFO, desferioxamine methanesulfonate]", "values": [{"measurement": "Number of lung metastases % of control", "setting": "[1]; group 2: DFO 10 mg/kg s.c.", "result": 103, "unit": "%"}, {"measurement": "Number of lung metastases x̄ ± SD", "setting": "[1]; group 2: DFO 10 mg/kg s.c.", "result": "69 ± 26"}, {"measurement": "Tumour weight % of control", "setting": "[1]; group 2: DFO 10 mg/kg s.c.", "result": 100, "unit": "%"}, {"measurement": "Tumour weight x̄ ± SD", "setting": "[1]; group 2: DFO 10 mg/kg s.c.", "result": "7.56 ± 0.32", "unit": "g"}, {"measurement": "Number of lung metastases % of control", "setting": "[1]; group 3: DFO 30 mg/kg s.c.", "result": 78, "unit": "%"}, {"measurement": "Number of lung metastases x̄ ± SD", "setting": "[1]; group 3: DFO 30 mg/kg s.c.", "result": "52 ± 16"}, {"measurement": "Tumour weight % of control", "setting": "[1]; group 3: DFO 30 mg/kg s.c.", "result": 106, "unit": "%"}, {"measurement": "Tumour weight x̄ ± SD", "setting": "[1]; group 3: DFO 30 mg/kg s.c.", "result": "7.99 ± 0.42", "unit": "g"}, {"measurement": "blasts in marrow aspirate", "setting": "[2]; conclusion of the 20-day treatment protocol (DFO and Ara-C)", "result": 60, "unit": "%"}, {"measurement": "blasts positive for non-specific esterase", "setting": "[2]; marrow aspirate, conclusion of the 20-day treatment protocol", "result": 60, "unit": "%"}, {"measurement": "proportions of proliferating cells", "setting": "[3]; 3H-thymidine labelled cells, same doses as Table 12", "result": "28 % ± 8%"}, {"measurement": "Number of cells in the peritoneal cavity % of control", "setting": "[3]; [7]", "result": 95, "unit": "%"}, {"measurement": "Number of cells in the peritoneal cavity x̄ ± SD", "setting": "[3]; [7]", "result": "3.49 ± 1.75 10^8"}, {"measurement": "Number of proliferating cells in peritoneal cavity % of control", "setting": "[3]; [7]", "result": 80, "unit": "%"}, {"measurement": "Number of proliferating cells in peritoneal cavity x̄ ± SD", "setting": "[3]; [7]", "result": "0.98 ± 0.64 10^8"}, {"measurement": "% Positive Cells B4", "setting": "[4]", "result": 10, "unit": "%"}, {"measurement": "% Positive Cells BA-1", "setting": "[4]", "result": 0, "unit": "%"}, {"measurement": "% Positive Cells BA-2", "setting": "[4]", "result": 0, "unit": "%"}, {"measurement": "% Positive Cells Ia", "setting": "[4]", "result": 75, "unit": "%"}, {"measurement": "% Positive Cells MY-4", "setting": "[4]", "result": 20, "unit": "%"}, {"measurement": "% Positive Cells MY-7", "setting": "[4]", "result": 20, "unit": "%"}, {"measurement": "% Positive Cells Mo1", "setting": "[4]", "result": 20, "unit": "%"}, {"measurement": "% Positive Cells sIg", "setting": "[4]", "result": 0, "unit": "%"}, {"measurement": "B4 Positive", "setting": "[5]", "result": 30, "unit": "%"}, {"measurement": "B4 intensity of staining", "setting": "[5]", "result": "+++"}, {"measurement": "CALLA Positive", "setting": "[5]", "result": 0, "unit": "%"}, {"measurement": "Ia Positive", "setting": "[5]", "result": 80, "unit": "%"}, {"measurement": "Ia intensity of staining", "setting": "[5]", "result": "+++"}, {"measurement": "Leu-1 Positive", "setting": "[5]", "result": 0, "unit": "%"}, {"measurement": "Leu-4 Positive", "setting": "[5]", "result": 0, "unit": "%"}, {"measurement": "MY-4 Positive", "setting": "[5]", "result": 60, "unit": "%"}, {"measurement": "MY-4 intensity of staining", "setting": "[5]", "result": "++"}, {"measurement": "OKM1 Positive", "setting": "[5]", "result": "> 90", "unit": "%"}, {"measurement": "OKM1 intensity of staining", "setting": "[5]", "result": "+++"}, {"measurement": "Blasts", "setting": "[6]; [8]", "result": "4.22e+10", "unit": "L⁻¹"}, {"measurement": "WBC", "setting": "[6]; [8]", "result": "6.25e+10", "unit": "L⁻¹"}, {"measurement": "Blasts", "setting": "[6]; [9]", "result": "4.09e+10", "unit": "L⁻¹"}, {"measurement": "WBC", "setting": "[6]; [9]", "result": "6.39e+10", "unit": "L⁻¹"}]}
